From patent publication US20150011423A1, “MEANS AND METHODS FOR ASSESSING KIDNEY TOXICITY” (BASF SE, priority 2011, published 2015)
Marks after values point to notes of the source that are not given here.

Tested on: rats
Assay: 28-day repeated dose study in rats with mass spectrometry-based plasma metabolite profiling (GC-MS, LC-MS, SPE-LC-MS); treatment ratios versus control
Settings: plasma; for Cysteine, treatment ratio versus control / Glycerol, polar fraction, treatment ratio versus control / Hippuric acid, treatment ratio versus control / Indole-3-acetic acid, treatment ratio versus control / Spermidine, treatment ratio versus control / Sucrose, treatment ratio versus control: Table 3b tubular defect
[1] = female rats, day 14, high dose, Table 3a tubular defect
[2] = female rats, day 28, high dose, Table 3a tubular defect
[3] = male rats, day 14, high dose, Table 3c tubular defect
[4] = male rats, day 14, high dose, Table 3d tubular defect
[5] = male rats, day 28, high dose, Table 3c tubular defect
[6] = male rats, day 28, high dose, Table 3d tubular defect

N.N.O=C([O-])C1(C(=O)[O-])CCC1.[Pt+2] [Carboplatin]
Creatine, treatment ratio versus control [1]: 1.22 *
Creatinine, treatment ratio versus control [1]: 0.85
Galactose, lipid fraction, treatment ratio versus control [1]: 1.17 *
Glucuronic acid, treatment ratio versus control [1]: 1.36
Glycerol-3-phosphate, polar fraction, treatment ratio versus control [1]: 1.66 *
Glycine, treatment ratio versus control [1]: 1.08
Histidine, treatment ratio versus control [1]: 1.03
Isoleucine, treatment ratio versus control [1]: 1.09 *
Leucine, treatment ratio versus control [1]: 1.13 *
Lysophosphatidylcholine (C18:1), treatment ratio versus control [1]: 0.98
Phosphatidylcholine No 02, treatment ratio versus control [1]: 1.07 *
TAG No 05, treatment ratio versus control [1]: 1.9 *
Threonic acid, treatment ratio versus control [1]: 1.14
Threonine, treatment ratio versus control [1]: 0.99
Uracil, treatment ratio versus control [1]: 1.07
Valine, treatment ratio versus control [1]: 1.07 *
Xylitol, treatment ratio versus control [1]: 0.83
Cysteine, treatment ratio versus control (female rats, day 14, high dose): 0.83 *
Glycerol, polar fraction, treatment ratio versus control (female rats, day 14, high dose): 0.88^
Hippuric acid, treatment ratio versus control (female rats, day 14, high dose): 0.59^
Indole-3-acetic acid, treatment ratio versus control (female rats, day 14, high dose): 0.38 *
Spermidine, treatment ratio versus control (female rats, day 14, high dose): 0.95^
Sucrose, treatment ratio versus control (female rats, day 14, high dose): 0.67 *
Creatine, treatment ratio versus control [2]: 1.41 *
Creatinine, treatment ratio versus control [2]: 1.59 *
Galactose, lipid fraction, treatment ratio versus control [2]: 0.84^
Glucuronic acid, treatment ratio versus control [2]: 1.24 *
Glycerol-3-phosphate, polar fraction, treatment ratio versus control [2]: 2.2 *
Glycine, treatment ratio versus control [2]: 1.17 *
Histidine, treatment ratio versus control [2]: 1.3 *
Isoleucine, treatment ratio versus control [2]: 1.35 *
Leucine, treatment ratio versus control [2]: 1.38 *
Lysophosphatidylcholine (C18:1), treatment ratio versus control [2]: 1.12 *
Phosphatidylcholine No 02, treatment ratio versus control [2]: 0.97^
TAG No 05, treatment ratio versus control [2]: 1.27 *
Threonic acid, treatment ratio versus control [2]: 1.23 *
Threonine, treatment ratio versus control [2]: 1.24 *
Uracil, treatment ratio versus control [2]: 1.37 *
Valine, treatment ratio versus control [2]: 1.25 *
Xylitol, treatment ratio versus control [2]: 1.56 *
Cysteine, treatment ratio versus control (female rats, day 28, high dose): 0.67
Glycerol, polar fraction, treatment ratio versus control (female rats, day 28, high dose): 0.78 *
Hippuric acid, treatment ratio versus control (female rats, day 28, high dose): 0.3 *
Indole-3-acetic acid, treatment ratio versus control (female rats, day 28, high dose): 0.65
Spermidine, treatment ratio versus control (female rats, day 28, high dose): 0.69 *
Sucrose, treatment ratio versus control (female rats, day 28, high dose): 0.61
Allantoin, treatment ratio versus control [3]: 1.4
Creatine, treatment ratio versus control [3]: 1.32 *
Glycerol-3-phosphate, polar fraction, treatment ratio versus control [3]: 1.59 *
Histidine, treatment ratio versus control [3]: 1.02
Kynurenic acid, treatment ratio versus control [3]: 1.21 *
Nervonic acid (C24:cis[15]1), treatment ratio versus control [3]: 1.02
Pantothenic acid, treatment ratio versus control [3]: 1.17
Pseudouridine, treatment ratio versus control [3]: 1.33 *
Taurine, treatment ratio versus control [3]: 1.18 *
Urea, treatment ratio versus control [3]: 1.47 *
16-Methylheptadecanoic acid, treatment ratio versus control [4]: 0.74 *
Linolenic acid (C18:cis[9,12,15]3), treatment ratio versus control [4]: 0.75
Phosphatidylcholine No 02, treatment ratio versus control [4]: 0.87 *
Phosphatidylcholine No 04, treatment ratio versus control [4]: 0.74 *
TAG (C18:1, C18:2), treatment ratio versus control [4]: 0.79 *
Allantoin, treatment ratio versus control [5]: 1.24 *
Creatine, treatment ratio versus control [5]: 1.42 *
Glycerol-3-phosphate, polar fraction, treatment ratio versus control [5]: 1.61 *
Histidine, treatment ratio versus control [5]: 1.22 *
Kynurenic acid, treatment ratio versus control [5]: 1.7
Nervonic acid (C24:cis[15]1), treatment ratio versus control [5]: 1.51 *
Pantothenic acid, treatment ratio versus control [5]: 1.47 *
Pseudouridine, treatment ratio versus control [5]: 1.11 *
Taurine, treatment ratio versus control [5]: 1.54 *
Urea, treatment ratio versus control [5]: 1.08
16-Methylheptadecanoic acid, treatment ratio versus control [6]: 0.51 *
Linolenic acid (C18:cis[9,12,15]3), treatment ratio versus control [6]: 0.7 *
Phosphatidylcholine No 02, treatment ratio versus control [6]: 0.91 *
Phosphatidylcholine No 04, treatment ratio versus control [6]: 0.78
TAG (C18:1, C18:2), treatment ratio versus control [6]: 0.62 *
